Reference: patent publication US12642793B2, “Compositions and methods to treat gastrointestinal diseases and disorders” (CEDARS-SINAI MEDICAL CENTER, priority 2019, dated 2026)

Legend:
[1] = system: anaerobes in patient duodenum aspirate; assay: Culture of patient duodenum aspirate on blood agar; type: cell-based; conditions: for Blood agar (CFU/mL), Before Rifaximin: With DTT
Text: (§1) Culture: blood agar and MacConkey aerobically, and blood agar anaerobically. […] Culture: MacConkey aerobically and blood agar anaerobically. […] Culture: MacConkey aerobically and blood agar anaerobically. […] Culture: MacConkey aerobically and blood agar anaerobically. […]

[2] = system: Gram-negative bacteria in patient duodenum aspirate; assay: Culture of patient duodenum aspirate on MacConkey agar aerobically; type: cell-based; conditions: for MacConkey agar (CFU/mL), Before Rifaximin: With DTT; for MacConkey agar (CFU/mL), Rifaximin treatment: aerobically
Text: as §1

[3] = Experiment 1, rifaximin dose 0.01 g/mL

| Compound | Blood agar (CFU/mL), Before Rifaximin ([1]; Experiment 1) [CFU/mL] | Blood agar (CFU/mL), Before Rifaximin ([1]; Experiment 2) | Blood agar (CFU/mL), Before Rifaximin ([1]; Experiment 3) [CFU/mL] | Blood agar (CFU/mL), Before Rifaximin ([1]; Experiment 4) [CFU/mL] | MacConkey agar (CFU/mL), Before Rifaximin ([2]; Experiment 1) [CFU/mL] | MacConkey agar (CFU/mL), Before Rifaximin ([2]; Experiment 2) [CFU/mL] | MacConkey agar (CFU/mL), Before Rifaximin ([2]; Experiment 3) [CFU/mL] | MacConkey agar (CFU/mL), Before Rifaximin ([2]; Experiment 4) [CFU/mL] | Blood agar (CFU/mL), Rifaximin treatment [1, 3] [CFU/mL] | Blood agar (CFU/mL), Rifaximin treatment ([1]; Experiment 2, rifaximin dose 0.1 g/mL, anaerobically) | Blood agar (CFU/mL), Rifaximin treatment ([1]; Experiment 3, rifaximin dose 0.01 g/mL, anaerobically) [CFU/mL] | Blood agar (CFU/mL), Rifaximin treatment ([1]; Experiment 4, rifaximin dose 0.1 g/mL, anaerobically) [CFU/mL] | MacConkey agar (CFU/mL), Rifaximin treatment [2, 3] [CFU/mL] | MacConkey agar (CFU/mL), Rifaximin treatment ([2]; Experiment 2, rifaximin dose 0.1 g/mL) [CFU/mL] | MacConkey agar (CFU/mL), Rifaximin treatment ([2]; Experiment 3, rifaximin dose 0.01 g/mL) [CFU/mL] | MacConkey agar (CFU/mL), Rifaximin treatment ([2]; Experiment 4, rifaximin dose 0.1 g/mL) [CFU/mL] |
| --- | --- | --- | --- | --- | --- | --- | --- | --- | --- | --- | --- | --- | --- | --- | --- | --- |
| O[C@H](CS)[C@H](O)CS (racemic) [DTT, dithiothreitol] | 72000 | too high | 60000 | 1600000 | 4800 | 338000 | 20 | 0 |  |  |  |  |  |  |  |  |
| CO[C@H]1/C=C/O[C@@]2(C)Oc3c(C)c(O)c4c(O)c(c5c(nc6cc(C)ccn65)c4c3C2=O)NC(=O)/C(C)=C\C=C\[C@H](C)[C@H](O)[C@@H](C)[C@@H](O)[C@@H](C)[C@H](OC(C)=O)[C@@H]1C [Rifaximin, rifaximin] |  |  |  |  |  |  |  |  | 6000 | too high | 800 | 16000 | 4000 | 343000 | 40 | 0 |
